Data reported in paper PMC8245855 (Acta Pharmaceutica Sinica. B, 2021).
Like-named read-outs stand apart in the source and are kept apart here. Values belong to the compound of their own block, whether it stands above or below them.

Assays:
15-LOX = conditions: 10 μmol/L; human neutrophils; cited from earlier work
12-LOX = target: T1, 12-LOX (Homo sapiens, UniProt P18054); conditions: 10 μmol/L; human neutrophils; cited from earlier work
T1 sequence (P18054 1-663): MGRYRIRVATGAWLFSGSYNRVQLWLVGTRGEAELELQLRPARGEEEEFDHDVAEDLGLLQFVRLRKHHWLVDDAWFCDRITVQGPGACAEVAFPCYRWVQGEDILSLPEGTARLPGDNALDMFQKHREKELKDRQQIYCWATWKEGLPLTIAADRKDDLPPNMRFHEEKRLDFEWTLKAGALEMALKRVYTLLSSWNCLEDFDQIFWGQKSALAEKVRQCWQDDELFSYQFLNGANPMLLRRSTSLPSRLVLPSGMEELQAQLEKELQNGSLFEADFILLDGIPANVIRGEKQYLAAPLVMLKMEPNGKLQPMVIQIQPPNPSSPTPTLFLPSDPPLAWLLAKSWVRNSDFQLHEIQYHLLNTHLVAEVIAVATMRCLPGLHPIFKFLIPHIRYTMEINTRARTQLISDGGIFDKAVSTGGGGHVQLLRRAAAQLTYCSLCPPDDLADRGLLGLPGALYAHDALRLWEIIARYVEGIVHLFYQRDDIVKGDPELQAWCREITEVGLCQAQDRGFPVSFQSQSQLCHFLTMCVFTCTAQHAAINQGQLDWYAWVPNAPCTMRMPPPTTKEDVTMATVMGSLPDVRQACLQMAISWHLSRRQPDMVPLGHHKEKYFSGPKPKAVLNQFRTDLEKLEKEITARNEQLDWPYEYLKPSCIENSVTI

5-LOX [1] = conditions: cited from earlier work; for IC50: read-out: IC50, 5-LOX
5-LOX [2] = target: T2, 5-LOX (Homo sapiens, UniProt P09917); assay: 5-LOX product formation in activated PMNL; assay type: cell-based; conditions: for IC50: read-out: IC50, 5-LOX product formation, activated PMNL, A23187 plus arachidonic acid
T2 sequence (P09917 1-674): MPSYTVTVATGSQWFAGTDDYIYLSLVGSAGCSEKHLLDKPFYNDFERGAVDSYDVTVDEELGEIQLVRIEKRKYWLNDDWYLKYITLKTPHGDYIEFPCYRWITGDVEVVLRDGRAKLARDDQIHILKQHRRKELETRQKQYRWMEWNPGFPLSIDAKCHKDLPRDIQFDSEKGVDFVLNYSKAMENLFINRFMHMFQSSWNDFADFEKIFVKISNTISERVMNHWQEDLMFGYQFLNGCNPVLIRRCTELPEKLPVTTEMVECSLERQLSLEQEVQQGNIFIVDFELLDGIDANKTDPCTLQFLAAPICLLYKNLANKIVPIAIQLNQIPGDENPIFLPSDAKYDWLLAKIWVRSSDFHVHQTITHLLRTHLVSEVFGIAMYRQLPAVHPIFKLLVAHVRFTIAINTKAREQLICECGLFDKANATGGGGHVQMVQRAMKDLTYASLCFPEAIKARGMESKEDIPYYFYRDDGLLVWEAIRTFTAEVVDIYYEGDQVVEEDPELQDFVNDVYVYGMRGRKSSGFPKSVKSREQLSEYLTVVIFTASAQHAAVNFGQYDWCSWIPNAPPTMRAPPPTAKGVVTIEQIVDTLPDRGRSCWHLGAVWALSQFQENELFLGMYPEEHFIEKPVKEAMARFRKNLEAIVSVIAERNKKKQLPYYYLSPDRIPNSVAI

5-LOX [3] = target: T2, 5-LOX; assay: cell-free 5-LOX activity; assay type: biochemical; conditions: for IC50: read-out: IC50, human recombinant 5-LOX, arachidonic acid 20 μmol/L
COX-1 = conditions: read-out: IC50, COX-1; cited from earlier work
[4] = test system: human neutrophils or macrophages; conditions: cited from earlier work

Compound: 3-O-acetyl-11-keto-β-boswellic acid [AKBA]
formation of 15-LOX metabolites (15-LOX): 210%
formation of 12-LOX metabolites (12-LOX): 270%
IC50 (5-LOX [1]): 3000 nM

IC50 (5-LOX [2]): 800 ± 140 nM
IC50 (5-LOX [3]): 300 ± 70 nM
Compound: COc1ccc(C(CCc2ccc(O)cc2OC)c2cc3c(c(C)c2O)OC(c2ccc(O)cc2)CC3)cc1 (centres unmarked) [Compound 3]

IC50 (5-LOX [2]): 460 ± 120 nM
IC50 (5-LOX [3]): 900 ± 260 nM
Compound: COc1cc(O)ccc1CCC(c1ccc(O)cc1)c1c(O)c(C)c2c(c1O)C(=O)CC(c1ccc(O)cc1)O2 (centres unmarked) [Compound 4]

inhibition at 3 µM (5-LOX [2]; PMNL, read-out: inhibition of biosynthesis of 5-LOX metabolites, PMNL): 64.1 ± 6.3%
suppression of 5-LOX product formation, cell-free (5-LOX [3]; 3 μmol/L): 70.7 ± 2.7%
Compound: CC(c1cc2ccccc2s1)N(O)C(N)=O (centres unmarked) [Zileuton, zileuton]

Compound: Cc1cc(C(C)(C)C)c(O)c(C)c1CC1=NCCN1 [oxymetazoline]
SPM formation ([4]; 400 μmol/L): 130%
5-LOX product formation (5-LOX [1]; 1000 μmol/L): failed to inhibit

Compound: ginkgolic acid
SPM formation ([4]; 10 μmol/L): 110%–240%
IC50 (5-LOX [1]): 200 nM
